“And” between values parts separate entries of the source, which are not always exact repeats. Equal values may be shown once.

Consider three molecules from article PMC12295440, “C-Terminal Analogues of Camostat Retain TMPRSS2 Protease Inhibition: New Synthetic Directions for Antiviral Repurposing of Guanidinium-Based Drugs in Respiratory Infections” (International Journal of Molecular Sciences, 2025).

This experiment deals with T1, TMPRSS2 (Homo sapiens, UniProt O15393).
T1 construct: purchased BPS Bioscience 780837
T1 sequence (O15393 whole entry): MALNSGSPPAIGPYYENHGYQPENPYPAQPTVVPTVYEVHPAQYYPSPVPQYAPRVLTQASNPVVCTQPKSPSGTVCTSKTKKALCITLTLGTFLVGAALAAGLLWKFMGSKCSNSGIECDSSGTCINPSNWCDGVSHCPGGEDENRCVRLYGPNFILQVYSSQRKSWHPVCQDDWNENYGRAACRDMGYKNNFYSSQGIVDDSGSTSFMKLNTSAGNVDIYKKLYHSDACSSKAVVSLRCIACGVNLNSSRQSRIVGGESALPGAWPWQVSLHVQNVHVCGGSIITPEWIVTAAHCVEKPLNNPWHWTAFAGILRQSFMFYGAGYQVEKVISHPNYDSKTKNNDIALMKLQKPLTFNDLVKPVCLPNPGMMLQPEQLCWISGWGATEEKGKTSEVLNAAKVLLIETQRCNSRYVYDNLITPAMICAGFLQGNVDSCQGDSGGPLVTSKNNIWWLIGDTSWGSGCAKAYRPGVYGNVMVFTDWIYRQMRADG
Put plainly: TMPRSS2 fluorogenic protease inhibition assay (BPS Bioscience kit). The experiment is classed as biochemical. The following applies: for IC50: fluorogenic substrate, 30 min pre-incubation at room temperature, average of two independent experiments in duplicate (N = 4), read-out: IC50, in vitro TMPRSS2 enzyme inhibition.

The term IC50 denotes the concentration at which inhibition is half-maximal. `CNC(=O)COC(=O)Cc1ccc(OC(=O)c2ccc(NC(=N)N)cc2)cc1` [Compound 1c]: the IC50 is 1.27 nM and 1.3 nM.

For the molecule `N=C(N)Nc1ccc(C(=O)Oc2ccc(CC(=O)OCC(=O)N3CCOCC3)cc2)cc1` [Compound 1d], the IC50 was 1.79 nM and 1.8 nM. As to `CN(C)C(=O)CNC(=O)Cc1ccc(NC(=O)c2ccc(NC(=N)N)cc2)cc1` [Compound 1e], the “TMPRSS2 inhibition (in words)” value (fluorogenic assay, concentrations 0.007-0.1054 µM) was “fell out of the range of the assay”.
